Here are results for six molecules from ChEMBL document CHEMBL4477225, “Development of a cell viability assay to assess drug metabolite structure-toxicity relationships” (Bioorg Med Chem Lett, 2016).

Each structure is given as a SMILES string.

Details in all cases: recombinant enzyme
The target in series [1] is T1, Cytochrome P450 3A4 (Homo sapiens, UniProt P08684). In words: Drug activation in human Hep3B cells assessed as human CYP3A4-mediated drug metabolism-induced cytotoxicity measured as decrease in cell viability at 83.8 uM pre-incubated with BSO for 18 hrs followed by incubation with compound for 3 hrs in presence of NADPH measured after 24 hrs in absence of compound, CYP3A4 and NADPH by cell titer-glo luminescence assay relative to BSO alone. In kind it is ADME, cell-based. A general note: Cellular ATP, detected with luciferase, serves as a proxy for viable cell number.
T1 sequence (P08684 whole entry): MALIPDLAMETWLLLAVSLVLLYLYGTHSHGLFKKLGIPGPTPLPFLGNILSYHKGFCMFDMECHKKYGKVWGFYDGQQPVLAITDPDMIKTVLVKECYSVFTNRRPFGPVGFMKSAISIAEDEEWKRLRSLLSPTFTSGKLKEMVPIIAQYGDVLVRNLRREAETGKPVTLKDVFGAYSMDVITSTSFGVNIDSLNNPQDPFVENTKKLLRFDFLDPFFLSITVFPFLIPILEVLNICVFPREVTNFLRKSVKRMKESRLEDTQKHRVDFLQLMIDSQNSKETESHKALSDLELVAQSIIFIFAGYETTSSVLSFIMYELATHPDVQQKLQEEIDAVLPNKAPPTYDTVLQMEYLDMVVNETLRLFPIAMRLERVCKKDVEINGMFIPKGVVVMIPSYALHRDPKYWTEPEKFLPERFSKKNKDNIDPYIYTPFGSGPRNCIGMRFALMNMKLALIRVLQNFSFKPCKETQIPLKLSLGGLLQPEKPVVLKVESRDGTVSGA

The target in series [2] is T2, Cytochrome P450 2D6 (Homo sapiens, UniProt P10635). The series can be described thus: Drug activation in human Hep3B cells assessed as human CYP2D6-mediated drug metabolism-induced cytotoxicity measured as decrease in cell viability at 193.1 uM pre-incubated with BSO for 18 hrs followed by incubation with compound for 3 hrs in presence of NADPH measured after 24 hrs in absence of compound, CYP3A4 and NADPH by cell titer-glo luminescence assay relative to BSO alone. The format is ADME, cell-based.
T2 sequence (P10635 whole entry): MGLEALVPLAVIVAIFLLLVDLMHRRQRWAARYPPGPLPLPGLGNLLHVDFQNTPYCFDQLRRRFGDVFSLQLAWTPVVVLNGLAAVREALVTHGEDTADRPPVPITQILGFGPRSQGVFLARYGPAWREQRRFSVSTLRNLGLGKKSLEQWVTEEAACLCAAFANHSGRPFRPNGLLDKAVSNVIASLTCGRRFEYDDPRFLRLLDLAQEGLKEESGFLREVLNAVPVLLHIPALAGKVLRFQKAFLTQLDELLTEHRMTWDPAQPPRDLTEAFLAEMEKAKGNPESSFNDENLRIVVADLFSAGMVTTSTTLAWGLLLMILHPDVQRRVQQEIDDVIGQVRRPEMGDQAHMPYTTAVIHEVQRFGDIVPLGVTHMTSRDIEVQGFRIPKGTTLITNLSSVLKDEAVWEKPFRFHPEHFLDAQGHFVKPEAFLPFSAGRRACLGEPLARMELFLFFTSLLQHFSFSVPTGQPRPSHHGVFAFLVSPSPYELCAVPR

Series [3] has as its target T2, Cytochrome P450 2D6. In words: Drug activation in human Hep3B cells assessed as human CYP2D6-mediated drug metabolism-induced cytotoxicity measured as decrease in cell viability at 7 uM pre-incubated with BSO for 18 hrs followed by incubation with compound for 3 hrs in presence of NADPH measured after 24 hrs in absence of compound, CYP3A4 and NADPH by cell titer-glo luminescence assay relative to BSO alone. The format is ADME, cell-based.

Series [4] concerns the target T1, Cytochrome P450 3A4. The series can be described thus: Drug activation in human Hep3B cells assessed as human CYP3A4-mediated drug metabolism-induced cytotoxicity measured as decrease in cell viability at 150.3 uM pre-incubated with BSO for 18 hrs followed by incubation with compound for 3 hrs in presence of NADPH measured after 24 hrs in absence of compound, CYP3A4 and NADPH by cell titer-glo luminescence assay relative to BSO alone. In kind it is ADME, cell-based.

For series [5], the target named is T3, Cytochrome P450 2C9 (Homo sapiens, UniProt P11712). In words: Drug activation in human Hep3B cells assessed as human CYP2C9-mediated drug metabolism-induced cytotoxicity measured as decrease in cell viability at 300 uM pre-incubated with BSO for 18 hrs followed by incubation with compound for 3 hrs in presence of NADPH measured after 24 hrs in absence of compound, CYP3A4 and NADPH by cell titer-glo luminescence assay relative to BSO alone.
T3 sequence (P11712 whole entry): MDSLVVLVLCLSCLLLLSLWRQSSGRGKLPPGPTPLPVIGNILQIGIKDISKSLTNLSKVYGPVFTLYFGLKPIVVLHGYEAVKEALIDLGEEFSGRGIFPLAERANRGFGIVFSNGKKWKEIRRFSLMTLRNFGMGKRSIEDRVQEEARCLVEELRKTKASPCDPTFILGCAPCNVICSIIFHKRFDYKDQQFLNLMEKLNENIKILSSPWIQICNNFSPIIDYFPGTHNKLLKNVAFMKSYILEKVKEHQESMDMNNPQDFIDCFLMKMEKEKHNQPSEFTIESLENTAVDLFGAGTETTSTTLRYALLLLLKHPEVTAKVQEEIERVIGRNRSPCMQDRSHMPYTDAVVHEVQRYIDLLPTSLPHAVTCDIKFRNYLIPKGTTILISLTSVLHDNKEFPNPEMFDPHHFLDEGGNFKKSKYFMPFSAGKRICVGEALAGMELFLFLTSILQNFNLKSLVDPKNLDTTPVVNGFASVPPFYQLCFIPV

Series [6] concerns the target T2, Cytochrome P450 2D6. In words: Drug activation in human Hep3B cells assessed as human CYP2D6-mediated drug metabolism-induced cytotoxicity measured as decrease in cell viability at 8.9 uM pre-incubated with BSO for 18 hrs followed by incubation with compound for 3 hrs in presence of NADPH measured after 24 hrs in absence of compound, CYP3A4 and NADPH by cell titer-glo luminescence assay relative to BSO alone. In kind it is ADME, cell-based.

In series [7] the target is T1, Cytochrome P450 3A4. The series can be described thus: Drug activation in human Hep3B cells assessed as human CYP3A4-mediated drug metabolism-induced cytotoxicity measured as decrease in cell viability at 300 uM pre-incubated with BSO for 18 hrs followed by incubation with compound for 3 hrs in presence of NADPH measured after 24 hrs in absence of compound, CYP3A4 and NADPH by cell titer-glo luminescence assay relative to BSO alone.

The target in series [8] is T2, Cytochrome P450 2D6. The series can be described thus: Drug activation in human Hep3B cells assessed as human CYP2D6-mediated drug metabolism-induced cytotoxicity measured as decrease in cell viability at 44.4 uM pre-incubated with BSO for 18 hrs followed by incubation with compound for 3 hrs in presence of NADPH measured after 24 hrs in absence of compound, CYP3A4 and NADPH by cell titer-glo luminescence assay relative to BSO alone. The format is ADME, cell-based.

Series [9] addresses T3, Cytochrome P450 2C9. The series can be described thus: Drug activation in human Hep3B cells assessed as human CYP2C9-mediated drug metabolism-induced cytotoxicity measured as decrease in cell viability at 36.8 uM pre-incubated with BSO for 18 hrs followed by incubation with compound for 3 hrs in presence of NADPH measured after 24 hrs in absence of compound, CYP3A4 and NADPH by cell titer-glo luminescence assay relative to BSO alone. In kind it is ADME, cell-based.

Series [10] concerns the target T1, Cytochrome P450 3A4. The series can be described thus: Drug activation in human Hep3B cells assessed as human CYP3A4-mediated drug metabolism-induced cytotoxicity measured as decrease in cell viability at […] pre-incubated with BSO for 18 hrs followed by incubation with compound for 3 hrs in presence of NADPH measured after 24 hrs in absence of compound, CYP3A4 and NADPH by cell titer-glo luminescence assay relative to BSO alone. In kind it is ADME, cell-based.

The target in series [11] is T3, Cytochrome P450 2C9. The series can be described thus: Drug activation in human Hep3B cells assessed as human CYP2C9-mediated drug metabolism-induced cytotoxicity measured as decrease in cell viability at 12.1 uM pre-incubated with BSO for 18 hrs followed by incubation with compound for 3 hrs in presence of NADPH measured after 24 hrs in absence of compound, CYP3A4 and NADPH by cell titer-glo luminescence assay relative to BSO alone. The format is ADME, cell-based.

Series [12] has as its target T2, Cytochrome P450 2D6. In words: Drug activation in human Hep3B cells assessed as human CYP2D6-mediated drug metabolism-induced cytotoxicity measured as decrease in cell viability at 3.2 uM pre-incubated with BSO for 18 hrs followed by incubation with compound for 3 hrs in presence of NADPH measured after 24 hrs in absence of compound, CYP3A4 and NADPH by cell titer-glo luminescence assay relative to BSO alone. In kind it is ADME, cell-based.

The target of series [13] is T2, Cytochrome P450 2D6. In words: Drug activation in human Hep3B cells assessed as human CYP2D6-mediated drug metabolism-induced cytotoxicity measured as decrease in cell viability at 139.7 uM pre-incubated with BSO for 18 hrs followed by incubation with compound for 3 hrs in presence of NADPH measured after 24 hrs in absence of compound, CYP3A4 and NADPH by cell titer-glo luminescence assay relative to BSO alone. The format is ADME, cell-based.

Series [14] concerns the target T1, Cytochrome P450 3A4. In words: Drug activation in human Hep3B cells assessed as human CYP3A4-mediated drug metabolism-induced cytotoxicity measured as decrease in cell viability at 242.9 uM pre-incubated with BSO for 18 hrs followed by incubation with compound for 3 hrs in presence of NADPH measured after 24 hrs in absence of compound, CYP3A4 and NADPH by cell titer-glo luminescence assay relative to BSO alone. The format is ADME, cell-based.

As to `OC(CCN1CCCCC1)(c1ccccc1)C1CC2C=CC1C2` (stereo unspecified) [BIPERIDEN], the “fold change (FC)” value on Cytochrome P450 3A4 [1] came out at 3.6; on Cytochrome P450 2D6 [2], 1.6.
Consider `CN(C)CCC(c1ccc(Br)cc1)c1ccccn1` (stereo unspecified) [BROMPHENIRAMINE], for which the “fold change (FC)” value at Cytochrome P450 2D6 [3] was 43; on Cytochrome P450 3A4 [4] it was 2. In addition, at Cytochrome P450 2C9 [5], the FC stood at 1.
As to `CN(C)CCC(c1ccc(Cl)cc1)c1ccccn1` (stereo unspecified) [CHLORPHENIRAMINE], the “fold change (FC)” value on Cytochrome P450 2D6 [6] came out at 33.6. In addition, the FC at Cytochrome P450 3A4 [7] and at Cytochrome P450 2C9 [5] was 1 each time.
For the molecule `Clc1ccccc1C(c1ccccc1)(c1ccccc1)n1ccnc1` [CLOTRIMAZOLE], the results for the “fold change (FC)” value at Cytochrome P450 2D6 [8] and on Cytochrome P450 2C9 [9] were 0.9 and 1.1, respectively.
On to `C=C(CC)C(=O)c1ccc(OCC(=O)O)c(Cl)c1Cl` [ETHACRYNIC ACID], for which the FC on Cytochrome P450 3A4 [10] is on record as 3.7. Besides, the results for the “fold change (FC)” value on Cytochrome P450 2C9 [11] and at Cytochrome P450 2D6 [12] were 0.7 and 2.7, respectively.
Consider `Cc1nc(-c2ccc(OCC(C)C)c(C#N)c2)sc1C(=O)O` [FEBUXOSTAT], for which the “fold change (FC)” value on Cytochrome P450 2D6 [13] amounted to 2.1; at Cytochrome P450 3A4 [14] it was 1.2. At Cytochrome P450 2C9 [5], the FC is 1.
